# Patent US20240400572A1, “COMPOUNDS AND METHODS FOR TREATING CANCERS THAT ARE MGMT DEFICIENT REGARDLESS OF MMR STATUS” (Yale University, priority 2021, published 2024)
# How the values were obtained:
# [1] = system: WT and XPA-deficient MEFs; assay: Short-term cell viability assay in NER isogenic MEFs; assay type: cell-based, mouse; conditions: WT versus XPA-deficient MEFs, ± MGMT depletion with O6BG
# Procedure: FIGS. ZS5A-ZS5D. […] Columns, mean; error bars, SD; n=2 independent analyses. For (FIG. ZS5A) and (FIG. ZS5C), points, mean; error bars, SD; n=3 technical replicates.
# (§1) Short-term Cell Viability Assay. Cells were seeded in 96-well plates at 1000 or 2000 cells/well and allowed to adhere at 23° C. for 60 min and then incubated overnight at 37° C. Cells were treated with indicated concentrations of compounds in triplicate for 4-6 days prior to fixation with 3.7% paraformaldehyde and nuclear staining with 1 μg/mL Hoechst 33342 dye. Cells were imaged on a Cytation 3 imaging reader (BioTek) and quantified using CellProfiler software.
# [2] = system: PD20 cells, FANCD2−/− or +FANCD2; assay: Short-term cell viability assay in FANCD2 model; assay type: cell-based, human; conditions: PD20 FANCD2−/− versus +FANCD2
# Procedure: (§2) FIGS. Z4A-Z4I. KL-50 (4a) activates DNA damage response pathways and cycle arrest in MGMT− cells, independent of MMR, and induces sensitivity in cells deficient in ICL or HR repair. (FIGS. Z4A, Z4B, and Z4C) Phospho-SER139-H2AX (γH2AX) (A), 53BP1 (FIG. Z4B), and phospo-SER33-RPA2 (pRPA) (FIG. Z4C) foci formation quantified by % cells with 10 foci in LN229 MGMT+/−, MMR+/− cells treated with 0.1% DMSO control, 20 μM KL-50 (4a), or 20 μM TMZ (1a) for 48 h. Columns, mean; error bars, SD; n≥5 technical replicates. Additional time course data is presented in FIG. ZS6B to D. (FIG. Z4D) Representative foci images of data in (FIG. Z4A) to (FIG. Z4C). (FIG. Z4E) Percentage of cells in G1, S, and G2 cell cycle phases after treatment as in (A) to (C), measured using integrated nuclear (Hoechst) staining intensity. Columns, mean; error bars, SD; n=3 independent analyses. (FIG. Z4F) Change in percent cells with 1 micronuclei from baseline (DMSO control) after treatment as in (FIG. Z4A) to (FIG. Z4C). Columns, mean; error bars, SD; […] technical replicates; **** p<0.0001; ns, not significant. Additional validation is presented in FIG. ZS9, A and B. (FIG. Z4G) Short-term viability assay curves for KL-50 (4a) in PD20 cells, deficient in FANCD2 (FANCD2−/−) or complemented with FANCD2 (+FANCD2). (FIG. Z4H) Short-term viability assay curves for KL-50 (4a) in PEO4 (BRCA2+) and PEO1 (BRCA2−/−) cells pre-treated with 0.01% DMSO control or 10 μM O^6BG (+O^6BG) for 1 h prior to KL-50 (4a) addition. (FIG. Z4I) Short-term viability assay curves for KL-50 (4a) in DLD1 BRCA2+/− and BRCA2−/− cells pre-treated with 0.01% DMSO control or 10 μM O^6BG (+O^6BG) for 1 h prior to KL-50 (4a) addition. For (FIG. Z4G), (FIG. Z4H), and (FIG. Z4I), points, mean; error bars, SD; n=3 technical replicates.
# Short-term Cell Viability Assay. Cells were seeded in 96-well plates at 1000 or 2000 cells/well and allowed to adhere at 23° C. for 60 min and then incubated overnight at 37° C. […] Cells were imaged on a Cytation 3 imaging reader (BioTek) and quantified using CellProfiler software.
# [3] = system: DLD1 BRCA2+/− and BRCA2−/− cells; assay: Short-term cell viability assay in DLD1 isogenic model; assay type: cell-based, human
# Procedure: as §2, §1
structure (smiles),measurement,setting,value
"NC(=O)c1ncn2c(=O)n(CCF)nnc12 [KL-50, 3-(2-fluoroethyl)-4-oxo-3H,4H-imidazo[4,3-d][1,2,3,5]tetrazine-8-carboxamide]",sensitivity of XPA deficient cells (in words),[1],absence of additional sensitivity
same,sensitivity of FANCD2-deficient cells (in words),[2],hypersensitive
same,sensitivity of BRCA2-deficient cells (in words),"[3]; DLD1 BRCA2−/− versus BRCA2+/−, ± 10 μM O^6BG",BRCA2 loss enhanced the toxicity
same,therapeutic index (TI),[3]; ratio of IC50 values in MGMT+/BRCA2+ cells compared to MGMT−/BRCA2− cells,~600 fold
